Key:
[1] = tested on: human iPSC-derived nonalcoholic steatohepatitis organoids; test: Effective drug test on human iPSC-derived nonalcoholic steatohepatitis organoids (HEMKS) in 100-well HD chip: qPCR, immunostaining, BODIPY; assay type: cell-based; conditions: oleic acid 500 μM + ezetimibe 50 μM for 2 days
Method: Human iPSC-derived liver organoids (HEMKS) were fabricated in the high-throughput 100-well HD chip. Then, a normal group was cultured in a normal culture medium for 7 days, whereas a nonalcoholic steatohepatitis (NASH) group was normally cultured for 5 days and then further cultured for 2 days in the culture medium mixed with 500 μM oleic acid, a free fatty acid, to induce steatohepatitis. Ezetimibe (Eze), an effective drug for treatment of fatty liver, is a drug candidate group that serves as a cholesterol absorption inhibitor and is conventionally used to treat high blood cholesterol and lipid abnormalities. After 5 days of normal culture, oleic acid (500 μM) and ezetimibe (50 μM) were mixed in the culture medium, followed by additional culture for 2 days to test the drug for steatohepatitis. After a total of 7 days of culture, the degree of fat accumulation was compared and the maker expression and gene expression were compared between groups by immunostaining and quantitative PCR analysis. For more accurate steatohepatitis modeling and drug screening, liver organoids containing immune cells (Kupffer cells) and mesenchymal cells (hepatic stellate cells) constituting a liver tissue microenvironment were fabricated. To this end, human iPSC-derived liver organoids were fabricated at a ratio of iPSC hepatic cells (H): vascular endothelial cells (E): mesenchymal stem cells (M): iPSC-derived Kupffer cells (K): iPSC-derived hepatic stellate cells (S)=10:7:2:2:1 (HEMKS).

[2] = tested on: human iPSC-derived nonalcoholic steatohepatitis organoids; test: ROS quantitative analysis by CM-H2DCFDA staining of NASH organoids in 100-well HD chip; assay type: cell-based; conditions: NASH+Eze versus NASH organoid
Method: To check the accumulation of reactive oxygen species (ROS) caused by oxidative stress in Normal, NASH and NASH+Eze human iPSC-derived liver organoids (HEMKS) fabricated in the high-throughput 100-well HD chip by the same culture method as described above, ROS activity and quantitative analysis between the groups was performed by CM-H2DCFDA staining, which is oxidative stress detection assay.
The high-throughput HD chip was designed and fabricated with the same dimensions as a commercially available conventional 384-well plate.

[3] = quantitative PCR, versus NASH group

Compound: O=C1[C@H](CC[C@H](O)c2ccc(F)cc2)[C@@H](c2ccc(O)cc2)N1c1ccc(F)cc1 [Eze, Ezetimibe]
- expression level of ALB, a hepatic differentiation marker ([1]; immunostaining, versus NASH organoid): recovered to a certain level
- fatty acid accumulation (BODIPY fluorescence signal labeling lipid) ([1]; versus NASH organoid): decreased
- expression level of PLIN2, a fatty acid accumulation marker [1, 3]: decreased
- expression level of SMA, liver fibrosis marker [1, 3]: decreased
- expression level of TNF-α, an inflammation marker [1, 3]: decreased
- expression level of VIM, liver fibrosis marker [1, 3]: decreased
- oxidative stress caused by ROS ([2]; CM-H2DCFDA staining, imaging): decreased to a certain level or less
- fluorescence intensity (ROS oxidative stress) ([2]; on-chip analysis with plate reader): decreased
